Data as given in ChEMBL document CHEMBL1201862, “PubChem BioAssay data set” (2004).
Active and inactive are the calls of the source.

Key:
[1] = molecular target: DNA dC->dU-editing enzyme APOBEC-3G (Homo sapiens, UniProt Q9HC16); test: Dose Response confirmation of small molecule APOBEC3G DNA Deaminase Inhibitors via a fluorescence-based single-stranded DNA deaminase assay. [Related pubchem assays (depositor defined):AID493012, AID493028]; format: functional
[2] = molecular target: Eukaryotic translation initiation factor 4E (Mus musculus, UniProt P63073); test: eIF4E–eIF4G protein interaction inhibitors, dose response, biochemical, TR-FRET (AID 855); format: functional;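 note: potency for disrupting eIF4E binding to eIF4GI seen as loss of FRET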
Sequence of Eukaryotic translation initiation factor 4E (P63073 whole entry): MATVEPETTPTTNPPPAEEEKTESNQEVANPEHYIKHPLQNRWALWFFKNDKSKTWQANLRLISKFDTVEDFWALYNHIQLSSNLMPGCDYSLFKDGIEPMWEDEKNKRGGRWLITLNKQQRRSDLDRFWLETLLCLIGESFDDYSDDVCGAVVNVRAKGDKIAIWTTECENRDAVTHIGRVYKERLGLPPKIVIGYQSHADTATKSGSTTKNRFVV

[3] = molecular target: T1, Alkaline phosphatase, tissue-nonspecific isozyme (Homo sapiens, UniProt P05186); test: human TNAP enzyme inhibitors, SAR follow-up, biochemical, luminescent, dose response (AID 1056)
T1 sequence (P05186 whole entry): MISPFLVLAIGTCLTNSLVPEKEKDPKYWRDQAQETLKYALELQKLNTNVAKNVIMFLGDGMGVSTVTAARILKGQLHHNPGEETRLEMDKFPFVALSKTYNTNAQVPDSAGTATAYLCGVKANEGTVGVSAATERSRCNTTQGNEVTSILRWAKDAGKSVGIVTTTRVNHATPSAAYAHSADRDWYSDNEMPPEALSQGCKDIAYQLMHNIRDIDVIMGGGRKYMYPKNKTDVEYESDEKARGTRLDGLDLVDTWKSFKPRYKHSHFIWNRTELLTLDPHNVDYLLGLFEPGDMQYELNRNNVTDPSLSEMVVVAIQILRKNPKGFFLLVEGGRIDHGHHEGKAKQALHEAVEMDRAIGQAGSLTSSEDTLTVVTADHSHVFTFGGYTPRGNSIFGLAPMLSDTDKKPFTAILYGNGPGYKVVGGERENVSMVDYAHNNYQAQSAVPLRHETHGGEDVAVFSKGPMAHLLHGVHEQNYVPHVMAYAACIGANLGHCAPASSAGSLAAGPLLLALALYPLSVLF

[4] = molecular target: Glyceraldehyde-3-phosphate dehydrogenase (Homo sapiens, UniProt P04406)
Sequence of Glyceraldehyde-3-phosphate dehydrogenase (P04406 whole entry): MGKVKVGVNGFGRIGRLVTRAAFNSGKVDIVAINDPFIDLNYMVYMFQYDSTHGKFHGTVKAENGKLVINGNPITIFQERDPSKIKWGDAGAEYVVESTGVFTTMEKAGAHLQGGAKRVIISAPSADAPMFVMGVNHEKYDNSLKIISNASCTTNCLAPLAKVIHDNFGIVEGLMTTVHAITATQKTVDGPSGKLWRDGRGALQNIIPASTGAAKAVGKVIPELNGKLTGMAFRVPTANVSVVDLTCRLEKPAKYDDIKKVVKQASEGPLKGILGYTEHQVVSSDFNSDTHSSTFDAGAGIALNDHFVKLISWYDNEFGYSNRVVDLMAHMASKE

[5] = molecular target: Intestinal-type alkaline phosphatase (Homo sapiens, UniProt P09923); test: Dose Response confirmation of uHTS hits from a small molecule inhibitors of human intestinal alkaline phosphatase via a luminescent assay. [Related pubchem assays (depositor defined):AID2544, AID2574]; format: functional
Sequence of Intestinal-type alkaline phosphatase (P09923 whole entry): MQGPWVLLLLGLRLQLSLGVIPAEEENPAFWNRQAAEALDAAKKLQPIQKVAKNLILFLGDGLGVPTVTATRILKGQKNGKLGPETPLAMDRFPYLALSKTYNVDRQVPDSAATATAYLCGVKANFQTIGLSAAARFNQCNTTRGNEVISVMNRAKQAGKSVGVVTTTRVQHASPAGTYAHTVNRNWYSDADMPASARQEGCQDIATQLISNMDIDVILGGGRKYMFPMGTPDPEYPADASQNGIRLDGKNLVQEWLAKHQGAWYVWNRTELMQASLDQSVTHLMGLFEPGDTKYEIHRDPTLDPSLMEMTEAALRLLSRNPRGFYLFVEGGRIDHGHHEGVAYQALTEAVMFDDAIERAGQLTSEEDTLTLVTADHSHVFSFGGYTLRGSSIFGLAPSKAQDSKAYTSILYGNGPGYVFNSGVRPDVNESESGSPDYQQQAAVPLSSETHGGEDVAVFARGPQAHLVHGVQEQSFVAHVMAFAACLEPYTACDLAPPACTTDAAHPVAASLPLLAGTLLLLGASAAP

HEK293 [6] = test: NOD1 signaling inhibitors, primary screen, cell-based, luminescence, uHTS (AID 1578); format: functional; details: Homo sapiens
HEK293 [7] = test: NOD2 signaling inhibitors in MDP-stimulated cells, cell-based, uHTS, luminescence (AID 2001); format: functional; details: Homo sapiens
[8] = molecular target: Nucleotide-binding oligomerization domain-containing protein 2 (Homo sapiens, UniProt Q9HC29); test: NOD2 signaling inhibitors, cell-based, luminescence, uHTS, HEK293 (AID 1566); format: functional
Sequence of Nucleotide-binding oligomerization domain-containing protein 2 (Q9HC29 whole entry, the tested form may be a part): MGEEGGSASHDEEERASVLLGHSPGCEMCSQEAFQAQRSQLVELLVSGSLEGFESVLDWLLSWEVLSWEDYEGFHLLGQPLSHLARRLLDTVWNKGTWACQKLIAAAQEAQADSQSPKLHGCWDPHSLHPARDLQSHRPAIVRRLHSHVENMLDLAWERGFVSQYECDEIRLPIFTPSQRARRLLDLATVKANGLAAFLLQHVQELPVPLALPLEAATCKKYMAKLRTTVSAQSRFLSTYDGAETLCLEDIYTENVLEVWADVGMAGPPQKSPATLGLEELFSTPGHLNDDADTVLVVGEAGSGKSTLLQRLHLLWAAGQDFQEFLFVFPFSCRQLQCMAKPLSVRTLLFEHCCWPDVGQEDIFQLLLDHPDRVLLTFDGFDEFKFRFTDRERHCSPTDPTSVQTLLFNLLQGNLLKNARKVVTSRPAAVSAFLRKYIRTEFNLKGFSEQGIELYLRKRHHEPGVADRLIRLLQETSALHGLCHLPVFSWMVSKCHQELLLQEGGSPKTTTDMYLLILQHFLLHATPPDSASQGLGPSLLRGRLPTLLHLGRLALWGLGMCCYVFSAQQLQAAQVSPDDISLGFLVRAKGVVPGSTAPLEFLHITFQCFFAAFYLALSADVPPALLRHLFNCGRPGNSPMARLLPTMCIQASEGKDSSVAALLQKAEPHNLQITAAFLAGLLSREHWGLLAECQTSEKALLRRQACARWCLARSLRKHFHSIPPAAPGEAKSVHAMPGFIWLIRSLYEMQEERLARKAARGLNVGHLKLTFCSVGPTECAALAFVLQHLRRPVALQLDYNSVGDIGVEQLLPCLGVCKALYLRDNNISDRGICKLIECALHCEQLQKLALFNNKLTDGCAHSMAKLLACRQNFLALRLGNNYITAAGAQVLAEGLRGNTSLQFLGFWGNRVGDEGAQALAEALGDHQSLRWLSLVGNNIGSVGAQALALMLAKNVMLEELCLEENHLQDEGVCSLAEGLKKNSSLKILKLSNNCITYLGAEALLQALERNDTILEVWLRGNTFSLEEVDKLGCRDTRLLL

HEK293 [9] = test: cells; format: functional, cell-based; details: Homo sapiens
HEK293 [10] = test: cells; format: functional, cell-based; details: Homo sapiens; remark: listed apart in the source
HEK293 [11] = test: cells; format: functional, cell-based; details: Homo sapiens; remark: listed apart in the source
[12] = system: Streptococcus sp. 'group A'; test: growth inhibition of control SK(-) GAS strain, dose response, counter-screen for streptokinase expression inhibitor project, luminescence, kanamycin, BacTiterGlo, confirmation (AID 1900); format: functional, organism-based
Protein skinhead-1 = molecular target: T2, Protein skinhead-1 (Caenorhabditis elegans, UniProt P34707); format: functional
T2 sequence (P34707 whole entry): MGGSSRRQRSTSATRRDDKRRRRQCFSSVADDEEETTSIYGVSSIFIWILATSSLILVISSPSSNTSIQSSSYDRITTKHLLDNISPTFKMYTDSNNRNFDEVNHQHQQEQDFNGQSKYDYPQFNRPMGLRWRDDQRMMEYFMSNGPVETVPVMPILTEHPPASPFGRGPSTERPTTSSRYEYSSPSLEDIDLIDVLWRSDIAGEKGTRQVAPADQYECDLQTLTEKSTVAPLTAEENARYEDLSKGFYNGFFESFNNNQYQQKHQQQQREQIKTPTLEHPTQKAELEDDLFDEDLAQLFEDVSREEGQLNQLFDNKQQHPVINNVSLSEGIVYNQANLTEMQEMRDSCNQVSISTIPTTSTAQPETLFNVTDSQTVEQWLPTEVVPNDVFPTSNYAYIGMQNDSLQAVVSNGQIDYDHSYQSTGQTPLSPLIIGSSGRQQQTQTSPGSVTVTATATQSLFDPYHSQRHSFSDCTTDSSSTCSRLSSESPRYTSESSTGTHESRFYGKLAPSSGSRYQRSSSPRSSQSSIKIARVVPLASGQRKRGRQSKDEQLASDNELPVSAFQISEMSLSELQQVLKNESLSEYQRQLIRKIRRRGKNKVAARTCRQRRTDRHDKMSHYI

Streptococcus = test: Group A Streptococcus viability loss, dose response, counter-screen for streptokinase expression inhibitor project, luminescence, BacTiterGlo (AID 1915); format: functional, organism-based;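 note: potency for reduction of bacterial viability or growth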
Streptokinase A = molecular target: T3, Streptokinase A (Streptococcus pyogenes serotype M1, UniProt P10520); test: S. pyogenes streptokinase expression inhibitors, potency, dose response, plasminogen activation absorbance, OD405 (AID 1914); format: functional, Streptococcus pyogenes M1 GAS;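 note: secreted streptokinase activity via plasminogen activation per viability signal from cell pellet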
T3 sequence (P10520 whole entry): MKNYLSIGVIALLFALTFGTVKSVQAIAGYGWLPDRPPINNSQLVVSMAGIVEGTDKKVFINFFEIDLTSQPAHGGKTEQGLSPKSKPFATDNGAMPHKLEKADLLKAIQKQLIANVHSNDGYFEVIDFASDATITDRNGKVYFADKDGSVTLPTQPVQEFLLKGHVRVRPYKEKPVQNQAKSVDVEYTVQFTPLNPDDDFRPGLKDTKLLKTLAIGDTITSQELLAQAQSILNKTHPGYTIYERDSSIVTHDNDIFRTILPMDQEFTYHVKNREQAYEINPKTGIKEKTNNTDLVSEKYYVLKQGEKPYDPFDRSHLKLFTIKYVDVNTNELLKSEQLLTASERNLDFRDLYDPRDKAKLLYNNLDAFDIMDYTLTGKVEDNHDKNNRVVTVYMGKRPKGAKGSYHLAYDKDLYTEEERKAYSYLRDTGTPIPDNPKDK

[13] = Luminescence Cell-Based Dose Confirmation HTS to Identify Activators of 5'UTR Stem-Loop Driven Alpha-Synuclein mRNA Translation in H4 Neuroglioblastoma Cells. [Related pubchem assays: 1829 (Project Summary), 1814 (Primary HTS)]; format: functional
[14] = molecular target: G-protein coupled receptor 55 (Homo sapiens, UniProt Q9Y2T6); test: GPR55 agonists via beta-arrestin recruitment, primary screen, imaging, U2OS cells, beta-arrestin-GFP redistribution (AID 1961); format: functional
Sequence of G-protein coupled receptor 55 (Q9Y2T6 whole entry): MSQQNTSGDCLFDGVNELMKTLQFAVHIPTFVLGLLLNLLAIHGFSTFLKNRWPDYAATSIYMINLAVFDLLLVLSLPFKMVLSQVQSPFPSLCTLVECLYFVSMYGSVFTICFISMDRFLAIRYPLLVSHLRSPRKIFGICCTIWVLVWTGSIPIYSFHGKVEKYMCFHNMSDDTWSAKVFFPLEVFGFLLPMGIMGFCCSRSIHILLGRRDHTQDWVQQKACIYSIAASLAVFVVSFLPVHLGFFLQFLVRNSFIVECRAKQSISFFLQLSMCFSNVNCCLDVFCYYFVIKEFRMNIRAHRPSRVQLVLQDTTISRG

H4 = test: Luminescence Cell-Based Dose Response HTS to Identify Activators of 5'UTR Stem-Loop Driven Prion Protein mRNA Translation in H4 Neuroglioblastoma Cells. [Related pubchem assays: 1829 (Project Summary), 1814 (Primary HTS)]; format: functional; details: Homo sapiens
[15] = Luminescence Cell-Based Dose Response HTS to Identify Activators of Luciferase Translation or Activity in H4 […] Cells. [Related pubchem assays: 1829 (Project Summary), 1814 (Primary HTS)]; format: functional
Ion channel NompC = Ion channel NompC (Danio rerio, UniProt Q7T1G6); test: Dose response cell-based high-throughput screening assay for agonists of the transient receptor potential channel N1 (TRPN1). [Related pubchem assays (depositor defined):AID1424, AID1448]; format: functional
Mucolipin-3 = Mucolipin-3 (Homo sapiens, UniProt Q8TDD5); test: Fluorescence counterscreen assay for […] agonists: dose response cell-based high-throughput screening assay to identify agonists of the transient receptor potential channel ML3 (TRPML3). [Related pubchem assays: 1424, 1448 ]; format: functional
Sequence of Mucolipin-3 (Q8TDD5 whole entry): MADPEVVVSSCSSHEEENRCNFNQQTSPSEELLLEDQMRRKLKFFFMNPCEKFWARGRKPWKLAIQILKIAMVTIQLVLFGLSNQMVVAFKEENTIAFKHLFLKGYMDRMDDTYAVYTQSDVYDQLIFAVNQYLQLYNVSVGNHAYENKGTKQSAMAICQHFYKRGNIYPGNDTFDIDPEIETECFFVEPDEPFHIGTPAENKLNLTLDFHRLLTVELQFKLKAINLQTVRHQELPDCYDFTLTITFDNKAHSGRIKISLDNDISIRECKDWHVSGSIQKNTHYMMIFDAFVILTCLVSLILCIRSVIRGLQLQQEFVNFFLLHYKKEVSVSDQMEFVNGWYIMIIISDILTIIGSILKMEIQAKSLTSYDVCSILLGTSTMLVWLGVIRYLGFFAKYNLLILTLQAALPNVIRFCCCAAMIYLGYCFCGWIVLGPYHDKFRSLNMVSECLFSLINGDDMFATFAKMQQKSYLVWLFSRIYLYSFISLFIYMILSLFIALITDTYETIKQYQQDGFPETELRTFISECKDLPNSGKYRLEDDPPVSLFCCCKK

[16] = molecular target: T4, Long-chain-fatty-acid--AMP ligase FadD28 (Mycobacterium tuberculosis, UniProt P9WQ59); test: Fluorescence polarization aasay to screen for inhibitors that compete for the binding of FadD28 to a bisubstrate Measured in Biochemical System Using Plate Reader - 2147-01_Inhibitor_Dose_CherryPick_Activity.; format: functional, Mycobacterium tuberculosis H37Rv
T4 sequence (P9WQ59 whole entry): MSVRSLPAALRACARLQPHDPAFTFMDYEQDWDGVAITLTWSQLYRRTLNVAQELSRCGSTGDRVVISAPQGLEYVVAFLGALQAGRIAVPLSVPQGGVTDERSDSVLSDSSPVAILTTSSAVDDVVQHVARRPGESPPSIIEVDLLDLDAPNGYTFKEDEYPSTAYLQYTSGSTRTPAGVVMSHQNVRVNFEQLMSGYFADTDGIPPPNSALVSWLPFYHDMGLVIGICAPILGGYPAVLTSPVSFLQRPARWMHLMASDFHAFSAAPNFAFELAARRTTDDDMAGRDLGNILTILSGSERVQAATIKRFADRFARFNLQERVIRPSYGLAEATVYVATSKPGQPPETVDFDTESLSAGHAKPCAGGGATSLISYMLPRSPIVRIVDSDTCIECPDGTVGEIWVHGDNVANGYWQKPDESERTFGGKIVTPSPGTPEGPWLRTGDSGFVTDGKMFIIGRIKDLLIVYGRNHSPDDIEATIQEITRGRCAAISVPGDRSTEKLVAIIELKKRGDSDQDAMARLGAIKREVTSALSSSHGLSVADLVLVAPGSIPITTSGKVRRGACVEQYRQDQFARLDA

[17] = molecular target: Voltage-dependent T-type calcium channel subunit alpha-1H (Homo sapiens, UniProt O95180); format: functional;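 note: channel activity triggered by adding a high calcium stimulation buffer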
[18] = molecular target: DNA damage-inducible transcript 3 protein (Mus musculus, UniProt P35639); format: functional, Cricetulus griseus
Sequence of DNA damage-inducible transcript 3 protein (P35639 whole entry): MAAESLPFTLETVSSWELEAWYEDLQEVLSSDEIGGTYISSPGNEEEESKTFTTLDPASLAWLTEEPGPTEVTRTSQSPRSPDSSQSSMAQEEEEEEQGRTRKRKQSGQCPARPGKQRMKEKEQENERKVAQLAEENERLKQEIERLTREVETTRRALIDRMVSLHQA

X-box-binding protein 1 = X-box-binding protein 1 (Homo sapiens, UniProt P17861); format: functional, Cricetulus griseus;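 note: confirmatory dose-response counter-screen serving a CHOP assay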
Sequence of X-box-binding protein 1 (P17861 whole entry): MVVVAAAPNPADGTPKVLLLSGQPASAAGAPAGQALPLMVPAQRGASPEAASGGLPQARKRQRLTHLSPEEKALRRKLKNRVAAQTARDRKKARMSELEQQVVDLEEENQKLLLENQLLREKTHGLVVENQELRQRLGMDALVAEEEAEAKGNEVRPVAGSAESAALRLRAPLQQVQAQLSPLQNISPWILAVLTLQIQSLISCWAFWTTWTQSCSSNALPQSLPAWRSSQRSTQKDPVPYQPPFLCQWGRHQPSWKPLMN

[19] = molecular target: Alkaline phosphatase, placental type (Homo sapiens, UniProt P05187); test: PLAP enzyme inhibitors, confirmation, biochemical, luminescence (AID 1512); format: functional
Sequence of Alkaline phosphatase, placental type (P05187 whole entry): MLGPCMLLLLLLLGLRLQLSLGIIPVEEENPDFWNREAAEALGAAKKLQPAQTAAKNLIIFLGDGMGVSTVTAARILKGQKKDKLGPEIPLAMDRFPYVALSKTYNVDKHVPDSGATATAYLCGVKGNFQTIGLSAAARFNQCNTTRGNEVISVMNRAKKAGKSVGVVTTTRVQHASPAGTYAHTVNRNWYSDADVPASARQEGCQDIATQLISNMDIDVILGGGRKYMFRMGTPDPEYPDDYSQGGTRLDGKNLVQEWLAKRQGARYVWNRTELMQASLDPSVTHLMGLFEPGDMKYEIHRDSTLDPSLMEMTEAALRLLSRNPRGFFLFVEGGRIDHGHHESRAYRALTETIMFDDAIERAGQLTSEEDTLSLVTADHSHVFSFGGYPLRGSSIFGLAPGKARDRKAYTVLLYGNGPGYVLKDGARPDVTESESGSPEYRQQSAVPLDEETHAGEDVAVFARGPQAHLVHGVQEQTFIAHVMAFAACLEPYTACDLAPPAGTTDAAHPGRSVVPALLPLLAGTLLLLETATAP

Sequence of DNA dC->dU-editing enzyme APOBEC-3G (Q9HC16 whole entry): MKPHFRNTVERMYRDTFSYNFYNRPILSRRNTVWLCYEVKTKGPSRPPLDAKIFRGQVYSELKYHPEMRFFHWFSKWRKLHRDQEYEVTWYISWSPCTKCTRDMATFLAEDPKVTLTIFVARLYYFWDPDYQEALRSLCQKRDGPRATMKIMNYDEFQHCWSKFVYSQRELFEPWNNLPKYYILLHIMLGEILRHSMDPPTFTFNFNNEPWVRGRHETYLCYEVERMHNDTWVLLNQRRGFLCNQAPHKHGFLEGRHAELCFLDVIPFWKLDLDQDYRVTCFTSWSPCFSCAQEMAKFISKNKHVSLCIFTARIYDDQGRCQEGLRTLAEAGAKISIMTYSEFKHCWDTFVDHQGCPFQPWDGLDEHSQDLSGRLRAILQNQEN

For `Cc1ccc(-n2c(N)c(C(N)=O)sc2=S)cc1`, the IC50 [1] was 55.1 µM (active) and the IC50 [2] was > 64 µM (inactive).
With `COc1cccc(S(=O)(=O)Nc2cccnc2)c1` the IC50 [3] was > 100 µM (inactive) and the IC50 [4] was > 100 µM (not active).
In the case of `N#Cc1c(-c2ccccc2)nc(N2CCOCC2)[nH]c1=O`, the IC50 [5] is reported as > 100 µM (inactive).
For `O=C(CN1C(=O)c2cccnc2Oc2ccc(Cl)cc21)NCCCc1ccccc1`, the EC50 (HEK293 [6]) was > 20 µM (inactive), the IC50 (HEK293 [7]) was > 20 µM (inactive) and the EC50 [8] was > 20 µM (inactive). The IC50 (HEK293 [9]) was > 20 µM (inactive), the IC50 (HEK293 [10]) was > 20 µM (inactive) and the IC50 (HEK293 [11]) was > 20 µM (inactive).
In the case of `O=C(/C=C\c1ccco1)Nc1nc(-c2ccc3ccccc3c2)cs1`, the EC50 (HEK293 [6]) is reported as > 20 µM (inactive), the IC50 (HEK293 [7]) is reported as 3.88 µM (inactive) and the EC50 [12] is reported as 7.52 µM (active). For the same compound, the IC50 (Protein skinhead-1) was > 100 µM (inactive), the EC50 [8] was > 20 µM (inactive) and the IC50 (HEK293 [9]) was > 20 µM (inactive). For the same compound, the EC50 (Streptococcus) was 73.7 µM (active), the IC50 (HEK293 [10]) was 3.56 µM (active) and the EC50 (Streptokinase A) was > 150 µM (not active). The IC50 (HEK293 [11]) was 7.24 µM (active).
In the case of `CC1=NN(c2ccc(C(=O)O)cc2)C(=O)/C1=C/c1ccc(-c2ccccc2F)o1`, the EC50 [13] is reported as > 120 µM (not active), the EC50 [14] is reported as 21.3 µM (inactive) and the EC50 (H4) is reported as > 120 µM (not active). The EC50 [15] was > 120 µM (not active).
With `COc1ccccc1N(CC(=O)NC(C)(C)C)S(=O)(=O)c1cccs1` the EC50 (Ion channel NompC) was > 29.9 µM (inactive) and the EC50 (Mucolipin-3) was > 29.9 µM (not active).
In the case of `CC(C)(C)c1csc(NC(=O)Cn2c(=O)oc3ccccc32)n1`, the AC50 [16] is reported as > 100 µM (inactive) and the EC50 [17] is reported as 1.5 µM (active).
For `COc1ccc(Cc2nc3ccccc3n2CC(=O)N/N=C/c2ccc(C)cc2O)cc1OC`, the “Absolute IC50 (CHOP)” value [18] was 10 µM.
In the case of `O=[N+]([O-])c1ccc(O)c(/C=N/Nc2ccccc2Cl)c1`, the “Absolute IC50 (XBP1)” value (X-box-binding protein 1) is reported as 10 µM and the “Absolute IC50 (CHOP)” value [18] is reported as 10 µM.
For `C[N+](C)(C)c1ccc(/C=N/Nc2nc(Cl)c(C#N)c(Cl)c2Cl)cc1`, the EC50 [12] was > 150 µM (not active), the IC50 [2] was > 64 µM (inactive) and the EC50 (Streptococcus) was > 150 µM (not active). The EC50 (Streptokinase A) was > 150 µM (not active).
With `COc1ccc2[nH]c(SCC(=O)c3ccc(O)c(O)c3)nc2c1` the IC50 [3] was 19.3 µM (active), the IC50 [19] was 6.17 µM (active) and the IC50 [4] was > 100 µM (not active).
